Series [1] concerns A. fumigatus ATCC 204305. In words: MIC with and without BSA supplementation, quality control strain. The note with it: Aspergillus fumigatus.
Description: (§1) Conidia were added across the plate to a final concentration of 1 × 10^5 ml^−1. […] Determination of antifungal activity against 50 A. fumigatus clinical isolates from St. Louis Hospital (Paris, France) was performed with 96-well plates, using the modified EUCAST method in the presence of 0.5% BSA as described above. Antifungal susceptibility testing of 46 A. fumigatus isolates (obtained from the NW England Mycology Reference Centre) was performed by Evotec UK Ltd. (Manchester, United Kingdom) according to EUCAST guidelines.
For series [2], the system named is Aspergillus niger (ATCC 1015). Briefly: MIC, EUCAST. Format: cell-based. The note with it: ATCC1015.
Series [3] has as its system Aspergillus terreus (AT49, AT7130). Briefly: MIC, EUCAST. Type of series: cell-based.
In series [4] the test system is Chaetomium globosum (ATCC 44699). Briefly: MIC, CLSI. Format: cell-based. To be noted: ATCC44699, 1 strain.
Series [5] concerns Gibberella zeae (Fusarium graminearum) (ATCC 16106). Briefly: microbe, parasite or virus in culture. Format: cell-based. The note with it: ATCC16106.
Series [6] concerns BEAS2B cells infected with A. fumigatus. Briefly: Persistence of action on bronchial epithelial cells (galactomannan in supernatant). Type of series: cell-based, Aspergillus fumigatus. The note with it: for IC50: Aspergillus fumigatus, BEAS-2B. On the procedure: The persistence of action of test agents was evaluated on immortalized bronchial epithelial cells (BEAS2B cells). […] Test and reference articles or undiluted DMSO (as vehicle) (0.5 μl/well) was added to the appropriate wells of the washout plate to give a final concentration of 0.5% DMSO. The plate was incubated for exactly 1 h at 37°C and 5% CO2. After the incubation time had elapsed, all wells on the washout plate were aspirated, and growth medium (100 μl/well) was added across the plate. After 24 h of incubation at 37°C, test and reference articles or undiluted DMSO (as vehicle) (0.5 μl/well) was added to the appropriate wells of the nonwashout plate to give a final concentration of 0.5% DMSO. The plate was incubated for exactly 1 h at 37°C and 5% CO2, after which A. fumigatus conidia were added across both plates to a final concentration of 1 × 10^3/well.

Series [7] concerns A. fumigatus hyphae (NCPF2010).
Description: (§2) The persistence of action of test agents was calculated for A. fumigatus hyphae (NCPF2010). […] The plates were incubated for exactly 20 min at 35°C and 5% CO2. After the incubation time had elapsed, all wells on the designated washout plate were aspirated, and growth medium (100 μl/well) was added across the plate. […] Resazurin (0.04%; diluted in growth medium) was added to all wells of both nonwashout and washout plates (5 μl/well) to give a final concentration of 0.002% resazurin. The plates were incubated at 35°C and 5% CO2 for 16 h. […] The percent inhibition for each well was calculated, and the IC50 was calculated from the concentration-response curve generated for each test compound by use of a four-parameter logistic equation (Dotmatics, Bishops Stortford, United Kingdom).
Series [8] deals with Aureobasidium pullulans (ATCC 9348). Briefly: MIC, CLSI. Format: cell-based. The note with it: ATCC9348, 1 strain.
Series [9] has as its system Penicillium chrysogenum (ATCC 9480). Briefly: MIC, CLSI. The note with it: ATCC9480, 1 strain. Format: cell-based.
For series [10], the system named is A. fumigatus (NCPF2010). In words: A. fumigatus cell-based ergosterol assay. Details: species or system Aspergillus fumigatus. To be noted: Aspergillus fumigatus; NCPF2010, 24 h, normalized by crystal violet; read-out: IC50, inhibition of ergosterol production. On the procedure: After incubation for 24 h at 35°C, medium was removed from all wells and replaced with reaction buffer (Amplex red cholesterol assay kit; Thermo Fisher) and Amplex red solution. Plates were incubated for 30 min at 37°C, protected from light, after which fluorescence was quantified using a spectrophotometer. Medium was removed from all wells and replaced with crystal violet solution (1% [vol/vol]), and plates were incubated at room temperature on a shaker for 30 min. Plates were washed three times with phosphate-buffered saline (PBS), and sodium dodecyl sulfate solution (0.1% [vol/vol]) was added across the plate to lyse the cells. After incubation at room temperature for 1 h, the absorbance was measured by determining the OD590 by use of a spectrophotometer.

For series [11], the system named is Aspergillus carbonarius (ATCC 8740). Briefly: MIC, CLSI. Format: cell-based. The note with it: ATCC8740.
In series [12] the test system is Mucor circinelloides (ATCC 8542). In words: MIC, CLSI. Type of series: cell-based. To be noted: ATCC8542, 1 strain.
Series [13] relates to Lichtheimia corymbifera (ATCC 7909). Briefly: MIC, CLSI. Type of series: cell-based. The note with it: ATCC7909, 1 strain.
Series [14] relates to Aspergillus flavus (ATCC 204304). In words: MIC, CLSI. Type of series: cell-based. To be noted: ATCC204304.
Series [15] relates to Trichophyton rubrum (ATCC 10218). Briefly: MIC, CLSI. Type of series: cell-based. The note with it: ATCC10218, 1 strain.
For series [16], the system named is Penicillium citrinum (ATCC 9849). Briefly: MIC, CLSI. Type of series: cell-based. The note with it: ATCC9849, 1 strain.
The subject of series [17] is Rhizopus oryzae (ATCC 11145). Briefly: MIC, CLSI. Type of series: cell-based.
The subject of series [18] is Rhizomucor pusillus (ATCC 16458). Briefly: MIC, CLSI. To be noted: ATCC16458, 1 strain. Type of series: cell-based.
In series [19] the test system is Cladosporium argillaceum (ATCC 38013). Briefly: MIC, CLSI. Type of series: cell-based. To be noted: Rhizocladosporium argillaceum, ATCC38013, 1 strain.
The test system of series [20] is Cryptococcus neoformans (ATCC 24067). In words: MIC, CLSI. The note with it: Cryptococcus neoformans, ATCC24067. Format: cell-based.
Series [21] deals with Aspergillus flavus (AFL8, NRRC3357). In words: MIC, EUCAST. Type of series: cell-based.
The test system of series [22] is Candida glabrata (ATCC 36583, R363). Briefly: MIC, CLSI. Type of series: cell-based. To be noted: Nakaseomyces glabratus, ATCC36583, read-out: MIC (the MIC given is the MIC50).
Series [23] concerns 96 clinically isolated A. fumigatus strains. In words: MIC against 96 clinically isolated strains (EUCAST, visual).
Description: as §1
Series [24] can be described thus: Precipitation in EUCAST medium. Type of series: physicochemical.
For series [25], the system named is A. fumigatus hyphae (NCPF2010). In words: Persistence of action on A. fumigatus hyphae (resazurin-based microtiter assay). The note with it: Aspergillus fumigatus, NCPF2010, 16 h, read-out: Hyphae IC50, No washout. A general note: Alamar Blue is a resazurin reagent that responds to reducing activity.
Description: as §2
Series [26] relates to Candida krusei (ATCC 6258). Briefly: MIC, CLSI. Type of series: cell-based. To be noted: Pichia kudriavzevii, ATCC6258.
Series [27] concerns AR Candida albicans (20183.073, 20186.025). In words: MIC, CLSI. Type of series: cell-based. To be noted: read-out: MIC (the MIC given is the MIC50).
Series [28] deals with Candida albicans (20240.047, ATCC 10231). In words: MIC, CLSI. Format: cell-based. The note with it: ATCC10231, read-out: MIC (the MIC given is the MIC50).

In brackets after ≈: the same amount, converted by molar mass. Several values for one entry are separate records, joined by “and”; a condition that tells them apart may be missing. Identical values can stand only once. Like-named read-outs stand apart in the source and are kept apart here. A value given as a limit tells only on which side of the number the result lay.

Usually IC50 stands for the point on the concentration scale where inhibition reaches its midpoint. The term MIC50 denotes the lowest concentration that inhibits either 50% of growth or 50% of the strains tested, depending on the study. As usually defined, the MIC90 is an inhibitory concentration at the 90% level, which refers to growth in some studies and to a panel of isolates in others.

As for `C[C@@H]1[C@H](O)[C@@H](C)/C=C/C=C/C=C/C=C/C=C/C=C/C=C/[C@H](O[C@@H]2O[C@H](C)[C@@H](O)[C@H](N)[C@@H]2O)C[C@@H]2O[C@](O)(C[C@@H](O)C[C@@H](O)[C@H](O)CC[C@@H](O)C[C@@H](O)CC(=O)O[C@H]1C)C[C@H](O)[C@H]2C(=O)O` [Amphotericin B, amphotericin B], the MIC in [1] (ATCC204305, with BSA) was determined as 2 µg/mL (≈ 2.16 µM); in series [1] (ATCC204305, without BSA) it was 1 µg/mL (≈ 1.08 µM).

Consider `CCC(C)n1ncn(-c2ccc(N3CCN(c4ccc(OCC5COC(Cn6cncn6)(c6ccc(Cl)cc6Cl)O5)cc4)CC3)cc2)c1=O` (stereo not shown) [Itraconazole, itraconazole], for which the MIC in [1] (ATCC204305, with BSA) was 0.125 µg/mL (≈ 0.177 µM); in series [1] (ATCC204305, without BSA), 0.25 µg/mL (≈ 0.354 µM).

Consider `C[C@@H](c1ncncc1F)[C@](O)(Cn1cncn1)c1ccc(F)cc1F` [Voriconazole, voriconazole], for which the MIC in series [2] was 1 µg/mL (≈ 2.86 µM); in [3], 1 µg/mL (≈ 2.86 µM); in series [4], 1 µg/mL (≈ 2.86 µM); in [5], greater than 8 µg/mL; in series [8], greater than 8 µg/mL; in [9], 2 µg/mL (≈ 5.73 µM). The MIC in series [11] was 0.5 µg/mL (≈ 1.43 µM); in series [12], greater than 8 µg/mL; in series [13], greater than 8 µg/mL; in series [14], 2 µg/mL (≈ 5.73 µM); in [1] (ATCC204305, with BSA) it was 1 to 2 µg/mL (≈ 2.86 to 5.73 µM); in series [1] (ATCC204305, without BSA) it was 2 µg/mL (≈ 5.73 µM). The MIC in series [15] is 0.063 µg/mL (≈ 0.18 µM); in [16], greater than 8 µg/mL; in series [17] (1 strain) it was greater than 8 µg/mL; in [17] (Rhizopus arrhizus, ATCC11145, 1 strain, read-out: MIC) it was greater than 8 µg/mL; in series [18] it was greater than 8 µg/mL; in series [19] it was 0.5 µg/mL (≈ 1.43 µM). Moreover, the MIC in series [20] was 0.016 µg/mL (≈ 0.0458 µM); in series [21], 0.63 µg/mL (≈ 1.8 µM); in series [23] (Aspergillus fumigatus, read-out: MIC, Geometric mean) it was 0.42 µg/mL (≈ 1.2 µM); in series [23] (Aspergillus fumigatus, read-out: MIC, Mode) it was 0.5 µg/mL (≈ 1.43 µM); in series [26] it was 0.25 µg/mL (≈ 0.716 µM). Also, in series [6] (1 h contact, 24-h washout prior to infection, GM readout), the “BEAS2B cells IC50, Washout” value is recorded as “ineffective”. Moreover, the IC50 is 0.054 µg/mL (≈ 0.155 µM) in [6] (1 h contact before infection, GM readout after 24 h, read-out: BEAS2B cells IC50, No washout); greater than 1 µg/mL in series [6] (1 h contact, 24-h washout prior to infection, GM readout, read-out: BEAS2B cells IC50, Washout); greater than 1 µg/mL in series [7]; 0.067 µg/mL and 190 nM in series [10]; 0.011 µg/mL (≈ 0.0315 µM) in series [25]. The MIC50 in series [22] was determined as 8.13 µg/mL (≈ 23.3 µM); in series [23] (Aspergillus fumigatus), 0.5 µg/mL (≈ 1.43 µM); in series [27], 10 µg/mL (≈ 28.6 µM); in [28] it was 0.14 µg/mL (≈ 0.401 µM). In series [23] (96 clinical isolates, determined visually), the “MIC, Range” value was in the range of 0.064 to 4 µg/mL. Moreover, the MIC90 in [23] (Aspergillus fumigatus) came to 1 µg/mL (≈ 2.86 µM). For the same compound, the “concentration at which compound precipitated in EUCAST medium” value in series [24] was “did not”.
